Test results as given in patent US7879795B2, “Enhancement of tigecycline potency using efflux pump inhibitors” (Mpex Pharmaceuticals, Inc., priority 2004, dated 2011).

Assays:
[1] = system: P. aeruginosa, PAM1723, overexpressing the MexAB-OprM efflux pump; assay: Levofloxacin potentiation checkerboard assay (broth microdilution); format: cell-based
Experimental: Stock solution was stored at −80° C.
The checkerboard assay was performed in microtiter plates. […] EPIs were diluted in the y axis, each row containing an equal concentration of an EPI. The result of these manipulations was that each well of the microtiter plate contains a unique combination of concentrations of the two agents. The assay was performed in MHB with a final bacterial inoculum of 5×10^5 CFU/ml (from an early-log phase culture). Microtiter plates were incubated during 20 h at 35° C. and were read using a microtiterplate reader (Molecular Devices) at 650 nm as well as visual observation using a microtiter plate-reading mirror.

[2] = Rat serum pharmacokinetics after IV bolus administration; format: in vivo; conditions: in words
Experimental: Rat serum pharmacokinetics of compounds 1, 2, 3 and 4 was evaluated after IV bolus administration (FIG. 11). FIG. 11 depicts the serum concentrations as a function of time.

[3] = Tissue levels in rat six-hour after 8.4 mg/kg IV bolus; format: in vivo; conditions: rat kidney, liver and lung; 8.4 mg/kg IV bolus; in words
Experimental: Tissue levels of compounds 1, 2, 3 and 4 were evaluated in kidney, liver and lung six-hour after 8.4 mg/kg IV bolus administration. FIG. 13 depicts the levels as a function of time.
Compound 67, which is the expected metabolite of proteolytic intracellular degradation of compound 3, was detected in rat tissues after IV infusion, confirming the tissue-specific degradation of compound 3 (Tables 9A, B).

[4] = In vitro stability in rat serum and tissue homogenates (LC/MS/MS); format: in vitro ADME
Experimental: To test the stability of the compounds in vitro, samples were prepared and analyzed by LC/MS/MS according to the following procedure.
Homogenization: A chunk of fresh tissue was weighed and mixed with saline at 1:1 ratio (w/v) in a 12×75 mm polypropylene round bottom tube. The mixture was homogenized with a Polytron homogenizer (on ice, 3×10 seconds with 10 second intervals at the setting of 7).
Incubation and TCA-precipitation: An appropriate amount of a tissue homogenate was pre-warmed at 37° C. for 2 minutes in an Eppendorf tube. The compound to be tested was added to the tube to a final concentration of 2 μg/ml, mixed, and a 60 μl aliquot was immediately taken (as 0 hour sample) and mixed with 120 μl of 4% TCA (trichloroacetic acid) in an Eppendorf tube. The temperature of the tube containing the rest of the tissue sample was returned to 37° C. for incubation. Later, samples were taken as scheduled and mixed with TCA as described above. Plasma and lavage samples were directly incubated with the compounds without addition of saline and homogenization.
LC/MS/MS sample vial preparation: TCA-precipitated sample tubes were vortexed for 30 seconds, centrifuged in a microfuge at top speed (13.2 k rpm) for 5 minutes. The supernatant was collected. The pH was neutralized to about 3.5 with ammonium acetate buffer. The sample (45 μl) was transferred to a glass LC/MS/MS vial (Kimble, 11 mm, 1.5 ml) and 5 μl of an internal standard was added to a final concentration of 500 ng/ml. LC/MS/MS analysis was performed in Chemistry Department of San Diego State University.
LC/MS/MS protocol: Thermo-Finnigan TSQ Quantum triple sector mass spectrometer with electrospray (ESI) ionization was used to analyze the samples. The operation conditions were: Mobile phase of pH 3.00 water/formic acid: acetonitrile-methanol (45%:5%:50% by volume); Thermo-Keystone Betabasic C-18 column (2.1 mm×50 mm) operated at 0.100 mL/min.
Many proteases responsible for degrading EPI compounds are located in […]. Lysozymes typically have an acidic pH (about 4.8-5), whereas the pH in tissue homogenates that were prepared was higher (kidney, pH 6.8; liver, pH 6.6; and lung, pH 7.5). To test the effect of tissue homogenates closer to physiological conditions, the pH was lowered to about 6 by adding acetic acid to the tissue homogenates and compound stability was tested. FIG. 2 depicts the stability of compounds 1 and 3 at different pH. […] The pH-dependent degradation of compound 3 was especially evident in kidney homogenates.
FIG. 4 is a bar graph depicting the stability of compound 3 in the supernatant and pellet of kidney tissue homogenates.

With `NCCC[C@H](N)C(=O)N[C@@H](CCc1ccccc1)C(=O)Nc1cnc2ccccc2c1` [Compound 2, 2-(S),5-Diamino-pentanoic acid [3-phenyl-1-(S)-(quinolin-3-ylcarbamoyl)-propyl]-amide] the “Antibiotic (levofloxacin) MIC in the presence of EPI” value (“Antibiotic (levofloxacin) MIC” for short) ([1]; EPI 0 μg/ml (levofloxacin alone)) was 2 µg/mL, the “Antibiotic (levofloxacin) MIC” value ([1]; EPI 1.25 μg/ml) was 2 µg/mL and the “Antibiotic (levofloxacin) MIC” value ([1]; EPI 5 μg/ml) was 2 µg/mL. For the same compound, the “Antibiotic (levofloxacin) MIC” value ([1]; EPI 10 μg/ml) was 1 µg/mL, the “Antibiotic (levofloxacin) MIC” value ([1]; EPI 20 μg/ml) was 0.125 µg/mL and the “Antibiotic (levofloxacin) MIC” value ([1]; EPI 40 μg/ml) was 0.06 µg/mL. For the same compound, the “Antibiotic (levofloxacin) MIC” value ([1]; EPI 80 μg/ml) was 0.03 µg/mL, the “Antibiotic (levofloxacin) MIC” value ([1]; EPI […]) was 2 µg/mL and the MPC8 ([1]; EPI concentration necessary to increase susceptibility to levofloxacin eight-fold) was 20 µg/mL. The “serum levels after IV bolus administration” value [2] was “decreased more rapidly”, the “tissue levels at 6 hours after IV injection” value [3] was “below the detectable level” and the “stability in rat serum” value ([4]; in words) was “intermediately stable”. The “compound left in serum after 1.5 hr of incubation” value ([4]; rat serum) was “about half”, the “compound left in serum after 4 hr” value ([4]; rat serum) was “almost all gone” and the “compound left in kidney and liver after the first 40 minutes of incubation” value ([4]; rat tissue homogenates) was “Hardly any was left”. For the same compound, the “stability in kidney and liver” value ([4]; rat tissue homogenates, in words) was “very unstable”.
